Columns and labels:
Tumor necrosis factor = Tumor necrosis factor (Homo sapiens, UniProt P01375); assay: TNFα Binding Assay
Procedure: Table 15: TNFα binding was measured in black 96-well plates using a time-resolved FRET assay using a previously described fluorescence acceptor TNFα probe (Xiao et al J. Med. Chem. 2020). Biotinylated TNFα was purchased from Acro Biosystems. Binding reactions were conducted in 20 mM Hepes (pH 7.5) 10 mM MgCl2 0.015% Tween-20 0.05 mg/ml BSA 2% DMSO with 1 nM TNFα 0.5 nM Streptavidin-Tb and 80 nM probe. Test compounds were resuspended in DMSO and 3-fold serial dilutions were made at 100× final concentrations. Fluorescence was measured using λex=340 nm, λem=490, 520 nm on an SpectraMax M5e plate reader (Molecular Devices) after 16 hr incubation time. Dose responses were conducted in duplicate and normalized to the response with DMSO (high) and 100 nM (R)-3-(1-((3-chloro-7-fluoro-6-(2-(2-hydroxypropan-2-yl)pyrimidin-5-yl)-2-methyl-1,5-naphthyridin-4-yl)amino)ethyl)-4-fluorobenzonitrile (low) on each plate. IC50 values were determined by fitting to 4-parameter curves in GraphPad Prism.

Folate receptor beta [1] = biological target: T1, Folate receptor beta (Homo sapiens, UniProt P14207); assay: Folate Receptor Binding Assay
Procedure: Table 15: Folate receptor binding was measured in black 96-well plates using a fluorescence polarization assay. A fluorescent probe consisting of a folate analog linked to Cy5 (FR-Cy) was custom synthesized. Test compounds were resuspended in DMSO and 3-fold serial dilutions were made from 300-0.015 μM (100× final concentrations). Binding reactions were conducted in 200 μl final volume in 20 mM Hepes (pH 7.5) 250 mM NaCl 0.0150 Tween-20 1% DMSO with 2.5 nM folate receptor beta (Acro Biosystems) and 2 nM probe. Fluorescence polarization was measured using λex=620 nm, λem=688 nm on an Envision plate reader (Perkin Elmer) after 2 hr incubation time. Dose responses were conducted in duplicate and normalized to the response with DMSO (high) and 1 μM folic acid (low) on each plate. IC50 values were determined by fitting to 4-parameter curves in GraphPad Prism.

Folate receptor beta [2] = biological target: T1, Folate receptor beta; assay: Folate Receptor SPR Assay
Procedure: Table 16: Folate receptor SPR binding assays were conducted on a Biacore 8K instrument (Cytiva) using biotinylated folate receptor beta (Acro Biosystems). Briefly, folate receptor was immobilized at -550 RU on a streptavidin chip (Cytiva) in 10 mM HEPES pH 7.5, 150 mM NaCl, 0.05% Tween 20. Multi-cycle kinetic studies were conducted with 8 compound concentrations using 2-fold dilutions in 10 mM HEPES pH 7.5, 150 mM NaCl, 0.05 % Tween 20, 2% DMSO at 25° C. A flow rate or 75 μl/mmn with an association time of 120 s and a dissociation time of 600 s were used. Surfaces were regenerated with 4 M MgCl2 at 30 μl/min for 30 s. Data were fit to a 1:1 model to determine the reported binding parameters.

T1 sequence (P14207 whole entry): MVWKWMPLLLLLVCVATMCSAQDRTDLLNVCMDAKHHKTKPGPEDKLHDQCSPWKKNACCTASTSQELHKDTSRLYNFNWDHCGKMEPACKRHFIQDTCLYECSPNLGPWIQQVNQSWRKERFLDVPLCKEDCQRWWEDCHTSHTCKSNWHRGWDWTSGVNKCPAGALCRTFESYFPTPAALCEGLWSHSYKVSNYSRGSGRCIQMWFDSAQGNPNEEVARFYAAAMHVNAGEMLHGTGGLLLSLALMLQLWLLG
Sequence of Tumor necrosis factor (P01375 whole entry): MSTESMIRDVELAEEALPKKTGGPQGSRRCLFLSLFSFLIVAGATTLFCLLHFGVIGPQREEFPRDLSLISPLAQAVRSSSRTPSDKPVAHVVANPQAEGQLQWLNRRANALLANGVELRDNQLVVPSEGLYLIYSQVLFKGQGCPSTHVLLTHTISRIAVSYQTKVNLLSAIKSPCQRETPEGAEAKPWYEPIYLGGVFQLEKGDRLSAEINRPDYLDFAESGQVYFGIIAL

Cc1nc2cc(F)c(-c3cnc(N4CCN(C(=O)COCCn5cc(COCCOCCOCCOCCNC(=O)CC[C@H](NC(=O)[C@H]6CC[C@H](NCc7cnc8nc(N)nc(O)c8n7)CC6)C(=O)O)nn5)CC4)nc3)nc2c(N[C@H](C)c2ccccc2F)c1Cl [US20250127913, Compound I-91]
IC50 (Tumor necrosis factor): 0.0175 µM
IC50 (Folate receptor beta [1]): 0.138 µM
Kd (Folate receptor beta [2]): 0.000201 µM
